System: MDA-MB-436
Assay: normalised response (% of control), CellTiter-Glo; higher = more viable cells (100 = DMSO, 0 = benzethonium chloride kill control)
Settings: incubation time: 72 h
Summary of the method: (§1)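 A 20 µl suspension of breast cancer cells was seeded into each well of 384-well plates containing compound at 5 concentrations in 10-fold steps over a compound-specific 10,000-fold range. After 72 h incubation, CellTox Green fluorescence (485/520 nm) was read first, and CellTiter-Glo luminescence was read after 10 min at room temperature. Each plate was normalised against 0.1 % DMSO (100) and a positive kill control (0), and each value is the normalised signal at one concentration.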

Point of comparison: C[C@@H]1C=C2C(=O)O[C@@H]3CC[C@H](C1)[C@]23O [Galiellalactone] (5 nM), normalised response 107%. Against it:
- CC(C)(C)c1cc(NC(=O)Nc2ccc(-c3cn4c(n3)sc3cc(OCCN5CCOCC5)ccc34)cc2)no1 [Quizartinib] (0.1 nM) — lower, 101%

System: DU-4475
Assay: as above
Settings: incubation time: 72 h
Summary of the method: as §1

Point of comparison: C#Cc1cccc(Nc2ncnc3cc(OC)c(OCCCCCCC(=O)NO)cc23)c1 [CUDC-101] (1 nM), normalised response 99.1%. Against it:
- CCS(=O)(=O)c1cccc(-c2cc(C(=O)NC3CCN(C)CC3)c(C)c3[nH]c4ncc(C)cc4c23)c1 [TAK-901] (0.1 nM) — higher, 106%
- CC(C)C[C@H](NC(=O)[C@H](Cc1ccccc1)NC(=O)c1cnccn1)B(O)O [Bortezomib] (0.1 nM) — higher, 103%
- COc1ccc(C2=N[C@@H](c3ccc(Cl)cc3)[C@@H](c3ccc(Cl)cc3)N2C(=O)N2CCNC(=O)C2)c(OC(C)C)c1 [Nutlin-3] (1 nM) — higher, 106%
- Cn1c(=O)c(F)c(Nc2ccc(I)cc2F)c2c(=O)n(C[C@@H](O)CO)cnc21 [TAK-733] (0.1 nM) — higher, 99.4%
- COC(=O)C[C@](O)(CCCC(C)(C)O)C(=O)O[C@@H]1C(OC)=C[C@]23CCCN2CCc2cc4c(cc2[C@H]13)OCO4 [Omacetaxine] (1 nM) — lower, 96%
- CC(C)(C)c1cc(NC(=O)Nc2ccc(-c3cn4c(n3)sc3cc(OCCN5CCOCC5)ccc34)cc2)no1 [Quizartinib] (0.1 nM) — higher, 104%
- C[C@@H]1C=C2C(=O)O[C@@H]3CC[C@H](C1)[C@]23O [Galiellalactone] (5 nM) — lower, 97.2%

System: CAL-51
Assay: as above
Settings: incubation time: 72 h
Summary of the method: as §1

Point of comparison: Cn1c(=O)c(F)c(Nc2ccc(I)cc2F)c2c(=O)n(C[C@@H](O)CO)cnc21 [TAK-733] (0.1 nM), normalised response 74%. Against it:
- CCS(=O)(=O)c1cccc(-c2cc(C(=O)NC3CCN(C)CC3)c(C)c3[nH]c4ncc(C)cc4c23)c1 [TAK-901] (0.1 nM) — higher, 122%
- C#Cc1cccc(Nc2ncnc3cc(OC)c(OCCCCCCC(=O)NO)cc23)c1 [CUDC-101] (1 nM) — higher, 74.1%
- CC(C)C[C@H](NC(=O)[C@H](Cc1ccccc1)NC(=O)c1cnccn1)B(O)O [Bortezomib] (0.1 nM) — higher, 90.9%
- COc1ccc(C2=N[C@@H](c3ccc(Cl)cc3)[C@@H](c3ccc(Cl)cc3)N2C(=O)N2CCNC(=O)C2)c(OC(C)C)c1 [Nutlin-3] (1 nM) — higher, 84.8%
- COC(=O)C[C@](O)(CCCC(C)(C)O)C(=O)O[C@@H]1C(OC)=C[C@]23CCCN2CCc2cc4c(cc2[C@H]13)OCO4 [Omacetaxine] (1 nM) — higher, 79.9%
- CC(C)(C)c1cc(NC(=O)Nc2ccc(-c3cn4c(n3)sc3cc(OCCN5CCOCC5)ccc34)cc2)no1 [Quizartinib] (0.1 nM) — higher, 87.7%
- C[C@@H]1C=C2C(=O)O[C@@H]3CC[C@H](C1)[C@]23O [Galiellalactone] (5 nM) — higher, 104%

System: HDQ-P1
Assay: as above
Settings: incubation time: 72 h
Summary of the method: as §1

Point of comparison: Cn1c(=O)c(F)c(Nc2ccc(I)cc2F)c2c(=O)n(C[C@@H](O)CO)cnc21 [TAK-733] (0.1 nM), normalised response 97.1%. Against it:
- CCS(=O)(=O)c1cccc(-c2cc(C(=O)NC3CCN(C)CC3)c(C)c3[nH]c4ncc(C)cc4c23)c1 [TAK-901] (0.1 nM) — higher, 98.9%
- C#Cc1cccc(Nc2ncnc3cc(OC)c(OCCCCCCC(=O)NO)cc23)c1 [CUDC-101] (1 nM) — lower, 97%
- CC(C)C[C@H](NC(=O)[C@H](Cc1ccccc1)NC(=O)c1cnccn1)B(O)O [Bortezomib] (0.1 nM) — lower, 93.6%
- COc1ccc(C2=N[C@@H](c3ccc(Cl)cc3)[C@@H](c3ccc(Cl)cc3)N2C(=O)N2CCNC(=O)C2)c(OC(C)C)c1 [Nutlin-3] (1 nM) — higher, 105%
- COC(=O)C[C@](O)(CCCC(C)(C)O)C(=O)O[C@@H]1C(OC)=C[C@]23CCCN2CCc2cc4c(cc2[C@H]13)OCO4 [Omacetaxine] (1 nM) — higher, 104%
- CC(C)(C)c1cc(NC(=O)Nc2ccc(-c3cn4c(n3)sc3cc(OCCN5CCOCC5)ccc34)cc2)no1 [Quizartinib] (0.1 nM) — higher, 99.5%
- C[C@@H]1C=C2C(=O)O[C@@H]3CC[C@H](C1)[C@]23O [Galiellalactone] (5 nM) — higher, 107%

System: SK-BR-3
Assay: as above
Settings: incubation time: 72 h
Summary of the method: as §1

Point of comparison: CCS(=O)(=O)c1cccc(-c2cc(C(=O)NC3CCN(C)CC3)c(C)c3[nH]c4ncc(C)cc4c23)c1 [TAK-901] (0.1 nM), normalised response 113%. Against it:
- C#Cc1cccc(Nc2ncnc3cc(OC)c(OCCCCCCC(=O)NO)cc23)c1 [CUDC-101] (1 nM) — lower, 90.8%
- CC(C)C[C@H](NC(=O)[C@H](Cc1ccccc1)NC(=O)c1cnccn1)B(O)O [Bortezomib] (0.1 nM) — lower, 101%
- COc1ccc(C2=N[C@@H](c3ccc(Cl)cc3)[C@@H](c3ccc(Cl)cc3)N2C(=O)N2CCNC(=O)C2)c(OC(C)C)c1 [Nutlin-3] (1 nM) — lower, 106%
- Cn1c(=O)c(F)c(Nc2ccc(I)cc2F)c2c(=O)n(C[C@@H](O)CO)cnc21 [TAK-733] (0.1 nM) — lower, 111%
- COC(=O)C[C@](O)(CCCC(C)(C)O)C(=O)O[C@@H]1C(OC)=C[C@]23CCCN2CCc2cc4c(cc2[C@H]13)OCO4 [Omacetaxine] (1 nM) — lower, 108%
- CC(C)(C)c1cc(NC(=O)Nc2ccc(-c3cn4c(n3)sc3cc(OCCN5CCOCC5)ccc34)cc2)no1 [Quizartinib] (0.1 nM) — lower, 109%
- C[C@@H]1C=C2C(=O)O[C@@H]3CC[C@H](C1)[C@]23O [Galiellalactone] (5 nM) — lower, 108%

System: CAL-85-1
Assay: as above
Settings: incubation time: 72 h
Summary of the method: as §1

Point of comparison: C#Cc1cccc(Nc2ncnc3cc(OC)c(OCCCCCCC(=O)NO)cc23)c1 [CUDC-101] (1 nM), normalised response 94.8%. Against it:
- CCS(=O)(=O)c1cccc(-c2cc(C(=O)NC3CCN(C)CC3)c(C)c3[nH]c4ncc(C)cc4c23)c1 [TAK-901] (0.1 nM) — higher, 103%
- CC(C)C[C@H](NC(=O)[C@H](Cc1ccccc1)NC(=O)c1cnccn1)B(O)O [Bortezomib] (0.1 nM) — higher, 95.6%
